Source: patent EP0007672A1, “Isocyanoalkenes, process and useful intermediates for their preparation, pharmaceutical and fungicidal preparations containing those isocyanoalkenes and the use of the fungicidal preparations in agriculture” (GIST-BROCADES N.V., priority 1978, dated 1980)
Converted amounts (≈) assume the structure as drawn. Read-outs that look alike come from different tables or passages of the source. Each block holds one compound with its values, some of them ahead of it.

Tests used:
Test in all cases: MIC (Minimum Inhibitory Concentration)
Assay type in all cases: cell-based
[1] = tested on: Trichophyton mentagrophytus
Excerpt: (§1) In addition they may be used for combatting plant diseases, in particular as fungicides. A list of MIC (Minimum Inhibitory Concentration) values for a number of microorganisms is listed herebelow. The figures in the column headings refer to the compounds prepared according to the experimental examples in comparison with the spectrum of 1-[2-(2,4-dichlorophenyl)-2-{(2,4-dichlorophenyl)-methoxy} -ethyl7-1H-imidazole (better known under the name of miconazole, c.f. Merck Index 9th Ed. page 6047) or natamycin (pimaricin, c.f. Merck Index 9th Ed. page 7233).

[2] = tested on: Trichophyton verrucosum
Excerpt: as §1

[3] = tested on: Pasteurella multocida; conditions: Pasteurella multocida, read-out: MIC values
Excerpt: as §1

[4] = tested on: Candida albicans
Excerpt: as §1

[5] = tested on: Trichophyton equinum
Excerpt: as §1

[6] = tested on: Trichophyton quickeaneum; conditions: read-out: MIC values
Excerpt: as §1

[7] = tested on: Trichophyton rubrum
Excerpt: as §1

[8] = tested on: Streptococcus haemolyticus; conditions: Streptococcus, read-out: MIC values
Excerpt: as §1

[9] = tested on: Trichophyton violoceum; conditions: read-out: MIC values
Excerpt: as §1

[10] = tested on: Trichophyton soudanese joyeux; conditions: read-out: MIC values
Excerpt: as §1

[11] = tested on: Trichophyton schoenleinii; conditions: read-out: MIC values
Excerpt: as §1

[12] = tested on: Trichophyton tonsurans; conditions: read-out: MIC values
Excerpt: as §1

[13] = read-out: MIC values, Trichophyton mentagrophytus 367-68
[14] = read-out: MIC values, Trichophyton mentagrophytus 421-67
[15] = read-out: MIC values, Trichophyton mentagrophytus A 3252
[16] = read-out: MIC values, Trichophyton mentagrophytus R 177
[17] = read-out: MIC values, Trichophyton mentagrophytus R 178
[18] = read-out: MIC values, Trichophyton verrucosum 134-66
[19] = read-out: MIC values, Trichophyton verrucosum A 2922
[20] = read-out: MIC values, Candida albicans A 7
[21] = read-out: MIC values, Candida albicans A 3140
[22] = read-out: MIC values, Candida albicans A 3141
[23] = read-out: MIC values, Candida albicans A 3142
[24] = read-out: MIC values, Candida albicans A 3143
[25] = read-out: MIC values, Candida albicans A 3144
[26] = read-out: MIC values, Candida albicans A 3145
[27] = read-out: MIC values, Candida albicans A 3165
[28] = read-out: MIC values, Candida albicans A 3166
[29] = read-out: MIC values, Candida albicans A 3167
[30] = read-out: MIC values, Candida albicans A 3169
[31] = read-out: MIC values, Candida albicans A 3171
[32] = read-out: MIC values, Candida albicans A 3184
[33] = read-out: MIC values, Candida albicans A 3190
[34] = read-out: MIC values, Candida albicans A 3192
[35] = read-out: MIC values, Candida albicans A 3194
[36] = read-out: MIC values, Candida albicans A 3196
[37] = read-out: MIC values, Trichophyton equinum 182-76
[38] = read-out: MIC values, Trichophyton equinum 441-51
[39] = read-out: MIC values, Trichophyton rubrum 218-65
[40] = read-out: MIC values, Trichophyton rubrum 494-62
[41] = read-out: MIC values, Trichophyton rubrum A 810

SMILES: [C-]#[N+]C(=C1C2CC3CC(C2)CC1C3)S(=O)(=O)c1ccc(C)cc1 [Example 2, a-adamantylidene-a-(4-toluenesulphonyl) methylisocyanide]
MIC [1, 13]: > 100 µg/mL
MIC [1, 14]: 50 µg/mL (≈ 153 µM)
MIC [1, 15]: > 100 µg/mL
MIC [1, 16]: 100 µg/mL (≈ 305 µM)
MIC [1, 17]: > 100 µg/mL
MIC ([1]; read-out: MIC values, Trichophyton mentagrophytus RRL 305): 50 µg/mL (≈ 153 µM)
MIC [2, 18]: 25 µg/mL (≈ 76.3 µM)
MIC [2, 19]: < 0.05 µg/mL
MIC [3]: > 100 µg/mL
MIC [4, 20]: 0.8 µg/mL (≈ 2.44 µM)
MIC [4, 21]: 12.5 µg/mL (≈ 38.2 µM)
MIC [4, 22]: > 100 µg/mL
MIC [4, 23]: > 100 µg/mL
MIC [4, 24]: 0.8 µg/mL (≈ 2.44 µM)
MIC [4, 25]: > 100 µg/mL
MIC [4, 26]: > 100 µg/mL
MIC [4, 27]: 50 µg/mL (≈ 153 µM)
MIC [4, 28]: 50 µg/mL (≈ 153 µM)
MIC [4, 29]: 25 µg/mL (≈ 76.3 µM)
MIC [4, 30]: 1.5 µg/mL (≈ 4.58 µM)
MIC [4, 31]: > 100 µg/mL
MIC [4, 32]: 0.8 µg/mL (≈ 2.44 µM)
MIC [4, 33]: 100 µg/mL (≈ 305 µM)
MIC [4, 34]: 1.5 µg/mL (≈ 4.58 µM)
MIC [4, 35]: > 100 µg/mL
MIC [4, 36]: > 100 µg/mL
MIC [5, 37]: 50 µg/mL (≈ 153 µM)
MIC [5, 38]: 25 µg/mL (≈ 76.3 µM)
MIC ([5]; read-out: MIC values, Trichophyton equinum 856-71): > 100 µg/mL
MIC ([6]; Trichophyton): > 100 µg/mL
MIC [7, 39]: < 0.05 µg/mL
MIC [7, 40]: > 100 µg/mL
MIC [7, 41]: 50 µg/mL (≈ 153 µM)
MIC [8]: 50 µg/mL (≈ 153 µM)
MIC ([9]; Trichophyton): 50 µg/mL (≈ 153 µM)
MIC ([10]; Trichophyton): 50 µg/mL (≈ 153 µM)
MIC ([11]; Trichophyton schoenleinii): 25 µg/mL (≈ 76.3 µM)

MIC ([1]; Trichophyton mentagrophytus 367-68, read-out: MIC values): 1.5 µg/mL (≈ 6.37 µM)
MIC ([1]; Trichophyton mentagrophytus 421-67, read-out: MIC values): 1.5 µg/mL (≈ 6.37 µM)
MIC ([1]; Trichophyton mentagrophytus A 3252, read-out: MIC values): 0.8 µg/mL (≈ 3.4 µM)
MIC ([1]; Trichophyton mentagrophytus R 177, read-out: MIC values): 6 µg/mL (≈ 25.5 µM)
MIC ([1]; Trichophyton mentagrophytus R 178, read-out: MIC values): 50 µg/mL (≈ 212 µM)
MIC ([1]; Trichophyton mentagrophytus RRL 305, read-out: MIC values): 3 µg/mL (≈ 12.7 µM)
MIC ([12]; Trichophyton tonsurans 561-50): < 0.1 µg/mL
MIC ([4]; Candida albicans A 7, read-out: MIC values): 3 µg/mL (≈ 12.7 µM)
MIC ([4]; Candida albicans A 3140, read-out: MIC values): 12.5 µg/mL (≈ 53.1 µM)
MIC ([4]; Candida albicans A 3141, read-out: MIC values): 25 µg/mL (≈ 106 µM)
MIC ([4]; Candida albicans A 3142, read-out: MIC values): 25 µg/mL (≈ 106 µM)
MIC ([4]; Candida albicans A 3143, read-out: MIC values): 25 µg/mL (≈ 106 µM)
MIC ([4]; Candida albicans A 3144, read-out: MIC values): 25 µg/mL (≈ 106 µM)
MIC ([4]; Candida albicans A 3145, read-out: MIC values): 12.5 µg/mL (≈ 53.1 µM)
MIC ([4]; Candida albicans A 3165, read-out: MIC values): 12.5 µg/mL (≈ 53.1 µM)
MIC ([4]; Candida albicans A 3166, read-out: MIC values): 12.5 µg/mL (≈ 53.1 µM)
MIC ([4]; Candida albicans A 3167, read-out: MIC values): 25 µg/mL (≈ 106 µM)
MIC ([4]; Candida albicans A 3168, read-out: MIC values): 25 µg/mL (≈ 106 µM)
MIC ([4]; Candida albicans A 3169, read-out: MIC values): 25 µg/mL (≈ 106 µM)
MIC ([4]; Candida albicans A 3171, read-out: MIC values): 12.5 µg/mL (≈ 53.1 µM)
MIC ([4]; Candida albicans A 3184, read-out: MIC values): 12.5 µg/mL (≈ 53.1 µM)
MIC ([4]; Candida albicans A 3190, read-out: MIC values): 12.5 µg/mL (≈ 53.1 µM)
MIC ([4]; Candida albicans A 3191, read-out: MIC values): 25 µg/mL (≈ 106 µM)
MIC ([4]; Candida albicans A 3192, read-out: MIC values): 25 µg/mL (≈ 106 µM)
MIC ([4]; Candida albicans A 3194, read-out: MIC values): 25 µg/mL (≈ 106 µM)
MIC ([4]; Candida albicans A 3196, read-out: MIC values): 25 µg/mL (≈ 106 µM)
MIC ([5]; Trichophyton equinum 182-76, read-out: MIC values): 3 µg/mL (≈ 12.7 µM)
MIC ([5]; Trichophyton equinum 856-71, read-out: MIC values): 6 µg/mL (≈ 25.5 µM)
MIC ([6]; Trichophyton quickeaneum A 2040): 0.8 µg/mL (≈ 3.4 µM)
MIC ([7]; Trichophyton rubrum 218-65, read-out: MIC values): 0.4 µg/mL (≈ 1.7 µM)
MIC ([7]; Trichophyton rubrum 494-62, read-out: MIC values): 0.4 µg/mL (≈ 1.7 µM)
MIC ([9]; Trichophyton violoceum 442-62): 0.1 µg/mL (≈ 0.425 µM)
MIC ([10]; Trichophyton soudanese joyeux 440-63): 12.5 µg/mL (≈ 53.1 µM)
MIC ([11]; Trichophyton schoenleinii 435-63): 0.2 µg/mL (≈ 0.85 µM)
SMILES: [C-]#[N+]C(=C(C)C)S(=O)(=O)c1ccc(C)cc1 [Example 5, 1-isocyano-2-methyl-1-(4-toluenesulphonyl)-1-propene]

SMILES: [C-]#[N+]C(C1=CCCCCCC1)S(=O)(=O)c1ccc(C)cc1 (stereo not drawn) [Example 20, α-(cycloocten-1-yl)-α-(4-toluenesulphonyl) methylisocyanide]
MIC [1, 13]: 50 µg/mL (≈ 165 µM)
MIC [1, 14]: 100 µg/mL (≈ 330 µM)
MIC [1, 15]: 25 µg/mL (≈ 82.4 µM)
MIC [1, 16]: 50 µg/mL (≈ 165 µM)
MIC [1, 17]: > 100 µg/mL
MIC [2, 18]: 6 µg/mL (≈ 19.8 µM)
MIC [2, 19]: 6 µg/mL (≈ 19.8 µM)
MIC ([12]; Trichophyton tonsurans): 0.75 µg/mL (≈ 2.47 µM)
MIC [3]: 50 µg/mL (≈ 165 µM)
MIC [4, 20]: 6 µg/mL (≈ 19.8 µM)
MIC [4, 21]: 6 µg/mL (≈ 19.8 µM)
MIC [4, 22]: 6 µg/mL (≈ 19.8 µM)
MIC [4, 23]: 6 µg/mL (≈ 19.8 µM)
MIC [4, 24]: 6 µg/mL (≈ 19.8 µM)
MIC [4, 25]: 6 µg/mL (≈ 19.8 µM)
MIC [4, 26]: 6 µg/mL (≈ 19.8 µM)
MIC [4, 27]: 6 µg/mL (≈ 19.8 µM)
MIC [4, 28]: 6 µg/mL (≈ 19.8 µM)
MIC [4, 29]: 6 µg/mL (≈ 19.8 µM)
MIC ([4]; read-out: MIC values, Candida albicans A 3168): 6 µg/mL (≈ 19.8 µM)
MIC [4, 30]: 6 µg/mL (≈ 19.8 µM)
MIC [4, 31]: 6 µg/mL (≈ 19.8 µM)
MIC [4, 32]: 6 µg/mL (≈ 19.8 µM)
MIC [4, 33]: 6 µg/mL (≈ 19.8 µM)
MIC ([4]; read-out: MIC values, Candida albicans A 3191): 6 µg/mL (≈ 19.8 µM)
MIC [4, 34]: 6 µg/mL (≈ 19.8 µM)
MIC [4, 35]: 3 µg/mL (≈ 9.89 µM)
MIC [4, 36]: 6 µg/mL (≈ 19.8 µM)
MIC [5, 37]: 50 µg/mL (≈ 165 µM)
MIC [5, 38]: 12.5 µg/mL (≈ 41.2 µM)
MIC ([6]; Trichophyton): 25 µg/mL (≈ 82.4 µM)
MIC [7, 39]: 12.5 µg/mL (≈ 41.2 µM)
MIC [7, 40]: 12.5 µg/mL (≈ 41.2 µM)
MIC [7, 41]: 100 µg/mL (≈ 330 µM)
MIC [8]: 12.5 µg/mL (≈ 41.2 µM)
MIC ([9]; Trichophyton): 12.5 µg/mL (≈ 41.2 µM)
MIC ([11]; Trichophyton schoenleinii): 12.5 µg/mL (≈ 41.2 µM)
